# Experimental data: patent US20260007634A1, “PHARMACEUTICAL COMPOSITIONS FOR THE TREATMENT OF ALLERGIC DISEASES” (KINKI UNIVERSITY, priority 2022, published 2026)
# Assays:
# Format in all cases: in vivo, mouse
# IL-17 [1] = assay: Serum IL-17 ELISA, food allergy mice; settings: OVA food allergy; serum day 28; oral 10 mg/kg (dexamethasone 2 mg/kg); control 98, vehicle 875
# Procedure: (§1) A 0.2 mL dose of 10 μg ovalbumin (OVA) and 1 mg Alum mixture was administered to 6-week-old female Balb/c mice (Japan SLC Inc.) (day 0 of the example). Alum was used as an adjuvant. Seven days later, the Balb/c mice were immunized again with a 0.2 mL injection of the above mixture. Starting on day 14, mice were orally treated with 10 mg/kg of norathyriol, 10 mg/kg of mangiferin 8a, 10 mg/kg of tofacitinib (JAK inhibitor), 2 mg/kg of dexamethasone (steroid) and 10 mg/kg of olopatadine (antihistamine) daily for 14 consecutive days. Starting on day 14, 10 mg OVA was administered orally every other day […], and the frequency of diarrhea was measured after the final administration on day 28. Note that tofacitinib, dexamethasone, and olopatadine are currently in clinical use in food allergy and were used as control drugs in this example.
# Serum was collected from day 28 mice in Examples 21, and IL-17 production was measured by enzyme-linked immunosorbent assay (ELISA). This assay was performed using a mouse IL-17 ELISA kit (R&D).
# IL-17 [2] = assay: Serum IL-17 ELISA, cedar pollinosis mice; settings: serum day 28, oral 10 mg/kg (dexamethasone 2 mg/kg), control 18, vehicle 397
# Procedure: (§2) A 0.2 mL dose of 100 μg cedar pollen and 1 mg Alum mixture was administered to 6-week-old female Balb/c mice (Japan SLC Inc.) (day 0 of the example). Alum was used as an adjuvant. Seven days later and 14 days later, the Balb/c mice were immunized again with 0.2 mL injections of the above mixture. Starting on day 20, mice were orally treated with 10 mg/kg of norathyriol, 10 mg/kg of mangiferin 8a, 10 mg/kg of tofacitinib (JAK inhibitor), 2 mg/kg of dexamethasone (steroid) and 10 mg/kg of olopatadine (antihistamine) daily for 8 consecutive days. Starting on day 21, 500 μg cedar pollen was administered intranasally, and nose-scratching behavior was measured on day 27. Note that tofacitinib, dexamethasone, and olopatadine are currently in clinical use in cedar pollinosis and were used as control drugs in this example.
# Serum was collected from day 28 mice in Examples 28 and 29, and IL-17 production was measured by enzyme-linked immunosorbent assay (ELISA). This assay was performed using a mouse IL-17 ELISA kit (R&D).
# IL-5 = assay: Serum IL-5 ELISA, cedar pollinosis mice; settings: serum day 28, oral 10 mg/kg (dexamethasone 2 mg/kg), control 77, vehicle 708
# Procedure: as §2
# Serum was collected from day 28 mice in Examples 28 and 29, and IL-5 production was measured by enzyme-linked immunosorbent assay (ELISA). This assay was performed using a mouse IL-5 ELISA kit (R&D).
# OVA-IgE antibody [3] = assay: Serum OVA-IgE antibody ELISA, food allergy mice; settings: serum day 28, oral 10 mg/kg (dexamethasone 2 mg/kg), control 1.5, vehicle 74
# Procedure: as §1
# Serum was collected from day 28 mice in Examples 21, and OVA-IgE antibody production was measured by enzyme-linked immunosorbent assay (ELISA). This assay was performed using a mouse OVA-IgE antibody ELISAkit (FUJIFILM Wako).
# IL-4 = assay: Serum IL-4 ELISA, allergic rhinitis mice; settings: OVA allergic rhinitis; serum day 28; oral 10 mg/kg (dexamethasone 2 mg/kg); control 227, vehicle 872
# Procedure: (§3) A 0.2 mL dose of 50 μg ovalbumin (OVA) and 2 mg Alum mixture was administered to 6-week-old female Balb/c mice (Japan SLC Inc.) (day 0 of the example). Alum was used as an adjuvant. Seven days later and 14 days later, the Balb/c mice were immunized again with 0.2 mL injections of the above mixture. Starting on day 20, mice were orally treated with 10 mg/kg of norathyriol, 10 mg/kg of mangiferin 8a, 10 mg/kg of tofacitinib (JAK inhibitor), 2 mg/kg of dexamethasone (steroid) and 10 mg/kg of olopatadine (antihistamine) daily for 8 consecutive days. Starting on day 21, 400 μg OVA was administered intranasally, and nose-scratching behavior was measured on day 27. Note that tofacitinib, dexamethasone, and olopatadine are currently in clinical use in allergic rhinitis and were used as control drugs in this example.
# Serum was collected from day 28 mice in Examples 6 and 7, and IL-4 production was measured by enzyme-linked immunosorbent assay (ELISA). This assay was performed using a mouse IL-4 ELISA kit (R&D).
# IgE antibody = assay: Serum IgE antibody ELISA, allergic rhinitis mice; settings: OVA allergic rhinitis; serum day 28; oral 10 mg/kg (dexamethasone 2 mg/kg); control 58, vehicle 111
# Procedure: as §3
# Serum was collected from day 28 mice in Examples 6 and 7, and IgE antibody production was measured by enzyme-linked immunosorbent assay (ELISA). This assay was performed using a mouse IgE antibody ELISA kit (R&D).
# OVA-IgE antibody [4] = assay: Serum OVA-IgE antibody ELISA, allergic rhinitis mice; settings: serum day 28, oral 10 mg/kg (dexamethasone 2 mg/kg), control 2.7, vehicle 69
# Procedure: as §3
# Serum was collected from day 28 mice in Examples 6 and 7, and OVA-IgE antibody production was measured by enzyme-linked immunosorbent assay (ELISA). This assay was performed using a mouse OVA-IgE antibody ELISA kit (FUJIFILM Wako).
# [5] = tested on: Balb/c mice with cedar pollinosis; assay: Sneezing, cedar pollinosis model mice; settings: oral daily 8 days from day 20, 10 mg/kg (dexamethasone 2 mg/kg), measured day 27, vs vehicle group
# Procedure: as §2, with “sneezing” for “nose-scratching behavior”
# The group that was just immunized with cedar pollen is called the subject group, the one that received norathyriol is called the norathyriol group, the one that received mangiferin 8a is called the mangiferin 8a group, the one that received tofacitinib is called the tofacitinib group, the one that received dexamethasone is called the dexamethasone group, and the one that received olopatadine is called the olopatadine group. Each group consisted of five animals.
Compound,amount of IL-17 (IL-17 [1]) [pg/mL],amount of IL-17 (IL-17 [2]) [pg/mL],amount of IL-5 (IL-5) [pg/mL],amount of OVA-IgE antibody (OVA-IgE antibody [3]) [U/mL],amount of IL-4 (IL-4) [pg/mL],amount of IgE antibody (IgE antibody) [ng/mL],amount of OVA-IgE antibody (OVA-IgE antibody [4]) [U/mL],number of sneezing [5]
C[C@@H]1C[C@H]2[C@@H]3CCC4=CC(=O)C=C[C@]4(C)[C@@]3(F)[C@@H](O)C[C@]2(C)[C@@]1(O)C(=O)CO [dexamethasone],216,49,182,21,336,40,18,–
CN(C)CC/C=C1/c2ccccc2COc2ccc(CC(=O)O)cc21 [olopatadine],721,172,438,68,717,118,67,significantly decreased the number of sneezing
"O=c1c2cc(O)c(O)cc2oc2cc(O)cc(O)c12 [norathyriol, 1,3,6,7-tetrahydroxyxanthone]",451,195,307,45,495,77,36,significantly decreased the number of sneezing
C[C@@H]1CCN(C(=O)CC#N)C[C@@H]1N(C)c1ncnc2[nH]ccc12 [tofacitinib],741,244,428,61,808,94,50,significantly decreased the number of sneezing
